In publication PMC11784013, “Potassium molybdate blocks APN-dependent coronavirus entry by degrading receptor via PIK3C3-mediated autophagy” (Journal of Virology, 2024):

How the values were obtained:
PRCV = PRCV infection of porcine intestinal organoids (monolayer, apical-out); assay type: cell-based, porcine respiratory coronavirus; details: monolayer 24 h; apical-out 1 MOI, 48 h; IFA, RT-qPCR, TCID50, western blot
Protocol: (§1) Fig 2 PM restricts TGEV and PRCV infection in porcine intestinal organoids. (A) Intestinal organoids cultured in 96-well plate were incubated with different concentrations of PM for 24 h, which was tested by Cell Counting Kit 8. (B and C) The intestinal organoids monolayer was treated with indicated PM and infected with TGEV Miller (0.1 MOI) for 24 h, which was measured by IFA (B), scale bar: 50 µm, RT-qPCR, TCID50, and western blot (C). (D) Apical-out intestinal organoids were treated with indicated PM and infected TGEV Miller (1 MOI) for 48 h, which was determined by RT-qPCR, TCID50, and western blot. (E and F) The intestinal organoids monolayer was treated with different concentrations of PM and infected with PRCV for 24 h, which was determined by IFA (E), scale bar: 50 µm, RT-qPCR, TCID50, and western blot (F). (G) Apical-out intestinal organoids were treated with indicated PM and infected PRCV (1 MOI) for 48 h, which was detected by RT-qPCR, TCID50, and western blot. Results are presented as mean ± SD of data from three independent experiments. **, P ≤ 0.01; ***, P ≤ 0.001.
(§2) Porcine 3D ileum organoids coated with Matrigel for 1 week were dissociated by incubation in 5 mM cold EDTA buffer on a rotating platform for 1 h at 4°C. […]

TGEV Miller [1] = assay: TGEV infection of porcine intestinal organoids (monolayer, apical-out); assay type: cell-based, transmissible gastroenteritis virus; details: RT-qPCR, TCID50, western blot
Protocol: as §1, §2

[2] = assay type: in vivo; details: piglets, oral PM 100 mg/kg
Protocol: Neonatal pigs spontaneously delivered from sows were confirmed to be negative for TGEV by RT-qPCR and enzyme-linked immunosorbent assay. For the cytotoxicity and pharmacokinetic parameters of the PM, three piglets were orally administered PM (100 mg/kg), and the serum was collected by venipuncture at 0, 1, 2, 4, 6, 8, 10, 12, 16, and 24 h after oral administration of PM for cytotoxicity assays and pharmacokinetic parameter determination. For antiviral animal experiments, piglets were randomly separated into four groups: the mock group ([3]), TGEV group ([3]), TGEV-PM-therapy group ([3]), and TGEV-PM-prevention group ([3]). For the TGEV group, neonatal pigs were orally administered 1.245 × 10^8 PFU TGEV Miller for 24 h. In addition, piglets in the TGEV-PM therapy group were orally infected with 1.245 × 10^8 PFU TGEV Miller and then treated with PM (100 mg/kg). […] The body weights of all piglets were recorded, and anal swabs were collected every 12 h. […]
Fig. S9. […] (A) The serum of piglets orally administered PM were collected at 1, 2, 4, 6, 8, 10, 12, 16 and 24 hours respectively and AST, CK and CREA level in those sera were measured by biochemical parameters. (B) PM concentrations at indicated times in piglets were determined by ICP-MS. […]

TGEV Miller [3] = assay: TGEV challenge of neonatal piglets, PM therapy and prevention; assay type: in vivo
Protocol: Fig 10 Oral administration of PM reduces TGEV pathogenicity by autophagic degradation of APN in piglets. (A) Experimental schemes for testing therapeutic and prophylactic efficacy of PM treatment against TGEV challenge in four groups of piglets. (B) Viral shedding was measured by RT-qPCR every 12 h postinfection. (C) TGEV genome copy numbers of duodenum, jejunum, and ileum were detected by RT-qPCR, and APN, PIK3C3, P62, and TGEV N in the small intestine were determined by western blot from piglets sacrificed at 24 hpi. (D) IFA of TGEV N and APN in different segments of the small intestine from piglets sacrificed at 24 hpi. Scale bar: 50 µm. Results are presented as mean ± SD of data from three independent experiments. **, P ≤ 0.01; ***, P ≤ 0.001.
Small intestinal tissues were collected, fixed for 24 h in 10% formalin, dehydrated according to the standard protocol, embedded in paraffin, and subjected to hematoxylin and eosin staining by standard procedures. For immunofluorescence analysis, Organoid monolayers or ST cells were fixed with 4% paraformaldehyde for 20 min and then permeabilized with 0.1% Triton X-100 (Beyotime, China, ST797) for 20 min at 37°C. Organoid monolayers or ST cells were blocked with 5% BSA (Biofroxx, Germany, 4240GR100) for 1 h and then labeled with primary antibodies overnight at 4°C. After rinsing, the sections were incubated with secondary antibodies for 1 h at room temperature. Next, 4’,6-diamidino-2-phenylindole (DAPI; Beyotime, China, C1006) was used to stain the nuclei. After washing, the organoid monolayers or ST cells were visualized using confocal laser-scanning microscopy (Zeiss LSM 900, Germany). Apical-out porcine intestinal organoids or small intestinal tissues were stained with primary and secondary antibodies and visualized using confocal laser-scanning microscopy (Zeiss LSM 900, Germany) according to the manufacturer’s protocol ([28]).
Neonatal pigs spontaneously delivered from sows were confirmed to be negative for TGEV by RT-qPCR and enzyme-linked immunosorbent assay. For the cytotoxicity and pharmacokinetic parameters of the PM, three piglets were orally administered PM (100 mg/kg), and the serum was collected by venipuncture at 0, 1, 2, 4, 6, 8, 10, 12, 16, and 24 h after oral administration of PM for cytotoxicity assays and pharmacokinetic parameter determination. For antiviral animal experiments, piglets were randomly separated into four groups: the mock group ([3]), TGEV group ([3]), TGEV-PM-therapy group ([3]), and TGEV-PM-prevention group ([3]). For the TGEV group, neonatal pigs were orally administered 1.245 × 10^8 PFU TGEV Miller for 24 h. In addition, piglets in the TGEV-PM therapy group were orally infected with 1.245 × 10^8 PFU TGEV Miller and then treated with PM (100 mg/kg). For the TGEV-PM-prevention group, three neonatal pigs were orally pretreated with PM (100 mg/kg) for 24 h and subsequently inoculated with 1.245 × 10^8 PFU TGEV Miller for 24 h. The body weights of all piglets were recorded, and anal swabs were collected every 12 h. At 24 hpi, all pigs were euthanized, and intestinal tissues were collected for RT-qPCR, western blot, IFA, and pathological examination. All animals were handled in strict accordance with good animal practice according to the Animal Ethics Procedures and Guidelines of the People’s Republic of China, and the study was approved by The Animal Administration and Ethics Committee of Lanzhou Veterinary Research Institute, Chinese Academy of Agricultural Sciences (Permit No. LVRIAEC-2020-030).

[4] = PM-therapy and PM-prevention groups vs control, 24 hpi, western blot
[5] = oral PM 100 mg/kg every 12 h, TGEV Miller 1.245 × 10^8 PFU oral

## [K+].[K+].[O]=[Mo](=[O])([O-])[O-] [PM, potassium molybdate]
PRCV
  PRCV infection in organoid monolayer and apical-out organoids: the same phenotypes were found
TGEV Miller [1]; TGEV Miller 0.1 MOI, 24 h, IFA, dose-dependent
  TGEV infection in intestinal organoid monolayer: significantly inhibited TGEV infection
TGEV Miller [1]; TGEV Miller 1 MOI, 48 h
  TGEV infection in apical-out organoids: markedly inhibited TGEV infection
[2]
  safety of the dose: safe concentration
[2]; serum at 0-24 h
  aminotransferase (AST), creatine kinase (CK) and creatinine (CERA) levels: did not affect
TGEV Miller [3]; 24 hpi
  APN expression and TGEV N protein expression in small intestine (IFA): almost entirely inhibited
TGEV Miller [3]; PM 100 mg/kg, preventive or therapeutic treatment, 24 hpi
  TGEV-induced villous atrophy of small intestinal segments (H&E): almost completely reversed TGEV-induced villous atrophy
TGEV Miller [3]; PM treatment alone
  effect of PM alone on the small intestine (H&E): did not have any impact on the small intestine
TGEV Miller [3]; PM-therapy and PM-prevention groups vs control, 24 hpi, RT-qPCR and western blot
  TGEV burden throughout the small intestine: substantially lower
TGEV Miller [3]; [4]
  APN and P62 expression throughout the small intestine: substantially lower
  PIK3C3 expression in the small intestine: significantly higher
TGEV Miller [3]; [5]
  body weight loss: TGEV group lost more weight and had higher viral shedding than those receiving PM
  viral shedding (anal swabs, RT-qPCR): TGEV group lost more weight and had higher viral shedding than those receiving PM
